Experimental data published in US4735953A, “Pharmaceutical preparation for learning stimulation and memory improvement” (priority 1986, dated 1988).
Structures can show the parent of a compound that is named as a salt.

Tests used:
[1] = tested on: learning ability of mice in a shuttle chamber; test: Learning ability of mice in a shuttle chamber; assay type: in vivo, mouse; conditions: mice
[2] = tested on: cerebral cortex of rabbits; test: Asymmetry factor by induced potential in the hearing zone of the cerebral cortex; assay type: in vivo, rabbit
Protocol: In the third series of experiments the effect of the preparation according to the present invention on the functional brain asymmetry was studied. The experiments were carried out on rabbits with electrodes implanted in the brain. The electrodes under nembutal narcosis (40 mg/kg) were implanted strictly symmetrically into the bearing zone of the temporal cortex of the right and left hemispheres on its lateral surface, whereas the indifferent electrode was secured to the nasal bones of a rabbit's skull. The acoustic irritation was applied through earphones. As the acoustic irritation a sound click caused by a square-shaped pulse from an electronic stimulator with a frequency of 0.1-0.2 Hz was used; the click intensity was adjusted within the range of from 5 to 80 Db. The amplification of the taken-off biopotentials was effected on an electroencephalograph; the induced potentials were obtained by means of an analyzer. 100 experiments on 20 animals were thus conducted; the interval between experiments on one animal was 7 days. The amplitude and form of the induced potential were determined. The asymmetry factor (Kas) was calculated by the formula: [formula] Ar --amplitude of the induced potential of the […] hemisphere, μV;
A1 --amplitude of the induced potential of the left hemisphere.
The test preparations were administered hypodermally in the form of 0.5-1.5% aqueous solutions 20 minutes before the beginning of the measurements.

[3] = tested on: learning ability of rats preliminarily sorted out for poor learning ability; test: Active avoidance learning in a shuttle chamber, rats sorted out for poor learning ability; assay type: in vivo, rat; conditions: poorly learning rats, hypodermally 0.04 mg/kg
Source text: (§1) In these experiments rats are taught to avoid an electric shock by escaping into a next chamber communicating with the first chamber by means of a special opening--a door. An electric current is applied to the chamber door consisting of metal plates. A conditional irritator is a light signal together with a sound click. The learning series consisted of 50 combinations. The number of combinations necessary for the animal's learning to escape into another chamber in response to the conditional signal was determined. Five correct responses out of 6 where regarded as the proof of stability of the acquired knowledge and were denoted as a "learning criterion". After 7 days the educational procedure was repeated, and again the number of combinations necessary to acquire the "learning criterion" was determined. In the case of difference between the first and second readings the percentage of retention of the acquired knowledge was calculated.
(§2) In this experiment the effect of the preparation according to the present invention and prior art preparations was separately evaluated for the purpose of comparison on well-learning and on specially selected poorly learning rats. […] To the poorly learning rats the animals were assigned which reached no "learning criterion" in the teaching series of 50 combinations, or, in other words, a stable knowledge of active avoidance was not worked out in them. […] The preparation according to the present invention and the prior art comparison preparations were administered before the first teaching series or thereafter.
(§3) Also studied were the effects produced upon a single and repeated administration of the preparation according to the present invention for 14 days.

[4] = tested on: learning ability of rats in a shuttle chamber; test: Active avoidance learning in a shuttle chamber, rats; assay type: in vivo, rat; conditions: rats, hypodermally 0.04 mg/kg
Source text: as §1, §2, §3

[5] = hypodermally 30 mg/kg, 12 day (retention)
[6] = hypodermally 100 mg/kg, 1st day
[7] = hypodermally 100 mg/kg, 12 day (retention)
[8] = hypodermally 300 mg/kg, 1st day
[9] = hypodermally 300 mg/kg, 12 day (retention)
[10] = per os 300 mg/kg, 12 day (retention)
[11] = hypodermally 0.03 mg/kg, 1st day
[12] = hypodermally 0.03 mg/kg, 12 day (retention)
[13] = hypodermally 0.1 mg/kg, 1st day
[14] = hypodermally 0.1 mg/kg, 12 day (retention)

Compound: CC(C)(CO)[C@@H](O)C(=O)NCCCC(=O)O [Calcium homopantothenate, calcium salt of homopantothenic acid]
- learning (in words) ([1]; 100 mg/kg): improving effect on learning only in a high dose
- effect of hypodermal vs per os administration (in words) ([1]; hypodermal vs per os): substantially more pronounced effect than its per os administration
- % of avoidance reactions, group I ([1]; hypodermally 30 mg/kg, 1st day): 21%
- % of avoidance reactions, group II ([1]; hypodermally 30 mg/kg, 1st day): 23%
- % of avoidance reactions, group III ([1]; hypodermally 30 mg/kg, 1st day): 40%
- % of avoidance reactions, group IV ([1]; hypodermally 30 mg/kg, 1st day): 55%
- % of avoidance reactions, group V ([1]; hypodermally 30 mg/kg, 1st day): 58%
- % of avoidance reactions, group VI ([1]; hypodermally 30 mg/kg, 1st day): 60%
- % of avoidance reactions, group I [1, 5]: 55%
- % of avoidance reactions, group II [1, 5]: 80%
- % of avoidance reactions, group III [1, 5]: 82%
- % of avoidance reactions, group IV [1, 5]: 85%
- % of avoidance reactions, group V [1, 5]: 84%
- % of avoidance reactions, group VI [1, 5]: 88%
- % of avoidance reactions, group I [1, 6]: 20%
- % of avoidance reactions, group II [1, 6]: 31%
- % of avoidance reactions, group III [1, 6]: 40%
- % of avoidance reactions, group IV [1, 6]: 55%
- % of avoidance reactions, group V [1, 6]: 58%
- % of avoidance reactions, group VI [1, 6]: 60%
- % of avoidance reactions, group I [1, 7]: 60%
- % of avoidance reactions, group II [1, 7]: 90%
- % of avoidance reactions, group III [1, 7]: 90%
- % of avoidance reactions, group IV [1, 7]: 89%
- % of avoidance reactions, group V [1, 7]: 90%
- % of avoidance reactions, group VI [1, 7]: 88%
- % of avoidance reactions, group I [1, 8]: 21%
- % of avoidance reactions, group II [1, 8]: 32%
- % of avoidance reactions, group III [1, 8]: 40%
- % of avoidance reactions, group IV [1, 8]: 50%
- % of avoidance reactions, group V [1, 8]: 51%
- % of avoidance reactions, group VI [1, 8]: 55%
- % of avoidance reactions, group I [1, 9]: 53%
- % of avoidance reactions, group II [1, 9]: 75%
- % of avoidance reactions, group III [1, 9]: 76%
- % of avoidance reactions, group IV [1, 9]: 76%
- % of avoidance reactions, group V [1, 9]: 74%
- % of avoidance reactions, group VI [1, 9]: 74%
- % of avoidance reactions, group I ([1]; per os 300 mg/kg, 1st day): 21%
- % of avoidance reactions, group II ([1]; per os 300 mg/kg, 1st day): 22%
- % of avoidance reactions, group III ([1]; per os 300 mg/kg, 1st day): 32%
- % of avoidance reactions, group IV ([1]; per os 300 mg/kg, 1st day): 42%
- % of avoidance reactions, group V ([1]; per os 300 mg/kg, 1st day): 43%
- % of avoidance reactions, group VI ([1]; per os 300 mg/kg, 1st day): 51%
- % of avoidance reactions, group I [1, 10]: 50%
- % of avoidance reactions, group II [1, 10]: 72%
- % of avoidance reactions, group III [1, 10]: 73%
- % of avoidance reactions, group IV [1, 10]: 78%
- % of avoidance reactions, group V [1, 10]: 77%
- % of avoidance reactions, group VI [1, 10]: 80%

Compound: COc1ccc2c3c1O[C@H]1C[C@@H](O)C=C[C@@]31CCN(C)C2 [Galantamine]
- Asymmetry factor, Preparation ([2]; hypodermally 3 mg/kg, control 0.26 ± 0.03): 0.19 ± 0.03

Compound: CNC(=O)Oc1ccc2c(c1)[C@]1(C)CCN(C)[C@@H]1N2C [Physostigmine, physostigmine]
- asymmetry factor (in words) [2]: did not change or reduced the factor of asymmetry
- Asymmetry factor, Preparation ([2]; hypodermally 0.04 mg/kg, control 0.22 ± 0.01): 0.11 ± 0.01
- teaching of animals (in words) ([1]; 0.03 mg/kg): slightly improves
- teaching of animals (in words) ([1]; 0.1 mg/kg): impairs teaching of animals
- % of avoidance reactions, group I [1, 11]: 20%
- % of avoidance reactions, group II [1, 11]: 21%
- % of avoidance reactions, group III [1, 11]: 26%
- % of avoidance reactions, group IV [1, 11]: 35%
- % of avoidance reactions, group V [1, 11]: 49%
- % of avoidance reactions, group VI [1, 11]: 57%
- % of avoidance reactions, group I [1, 12]: 50%
- % of avoidance reactions, group II [1, 12]: 80%
- % of avoidance reactions, group III [1, 12]: 83%
- % of avoidance reactions, group IV [1, 12]: 87%
- % of avoidance reactions, group V [1, 12]: 90%
- % of avoidance reactions, group VI [1, 12]: 89%
- % of avoidance reactions, group I [1, 13]: 18%
- % of avoidance reactions, group II [1, 13]: 4%
- % of avoidance reactions, group III [1, 13]: 7%
- % of avoidance reactions, group IV [1, 13]: 18%
- % of avoidance reactions, group V [1, 13]: 23%
- % of avoidance reactions, group VI [1, 13]: 38%
- % of avoidance reactions, group I [1, 14]: 39%
- % of avoidance reactions, group II [1, 14]: 60%
- % of avoidance reactions, group III [1, 14]: 70%
- % of avoidance reactions, group IV [1, 14]: 70%
- % of avoidance reactions, group V [1, 14]: 71%
- % of avoidance reactions, group VI [1, 14]: 70%
- % of knowledge retention [3]: 10%
- Number of combinations till appearance of "learning criterion", I teaching [3]: 46 ± 3.1
- Number of combinations till appearance of "learning criterion", II-checking of retention of knowledge [3]: 31.4 ± 1.8
- Number of untaught animals in the group [3]: 12/20
- Number of combinations to reach the "learning criterion" in II teaching series (after 7 days) [4]: 6.1 ± 0.9
- Number of combinations to reach the "learning criterion" in the I teaching series [4]: 21.9 ± 2.5
- Number of non-taught animals in the group [4]: 1/20
- Percentage knowledge retention [4]: 72%
